In PubChem BioAssay (NCI):
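Following 48 hours of exposure in 96-well plates, responses at five concentrations were used to interpolate endpoints linearly. TGI: total growth inhibition.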

Tests used:
Assay in all cases: DTP human tumour cell line panel, 48 h
A498 renal = system: A498 renal
CAKI-1 renal = system: CAKI-1 renal
EKVX NSCLC = system: EKVX NSCLC
HCT-15 colon = system: HCT-15 colon
HOP-62 NSCLC = system: HOP-62 NSCLC
HOP-92 NSCLC = system: HOP-92 NSCLC
HS 578T breast = system: HS 578T breast
MALME-3M melanoma = system: MALME-3M melanoma
MCF7 breast = system: MCF7 breast
MDA-N = system: MDA-N
NCI-H23 lung = system: NCI-H23 lung
NCI-H460 lung = system: NCI-H460 lung
NCI-H522 lung = system: NCI-H522 lung
OVCAR-4 ovarian = system: OVCAR-4 ovarian
SF-539 CNS = system: SF-539 CNS
SK-OV-3 ovarian = system: SK-OV-3 ovarian
SNB-19 CNS = system: SNB-19 CNS
TK-10 renal = system: TK-10 renal
SF-268 CNS = system: SF-268 CNS

| SMILES | TGI (A498 renal) [µM] | TGI (CAKI-1 renal) [µM] | TGI (EKVX NSCLC) [µM] | TGI (HCT-15 colon) [µM] | TGI (HOP-62 NSCLC) [µM] | TGI (HOP-92 NSCLC) [µM] | TGI (HS 578T breast) [µM] | TGI (MALME-3M melanoma) [µM] | TGI (MCF7 breast) [µM] | TGI (MDA-N) [µM] | TGI (NCI-H23 lung) [µM] | TGI (NCI-H460 lung) [µM] | TGI (NCI-H522 lung) [µM] | TGI (OVCAR-4 ovarian) [µM] | TGI (SF-539 CNS) [µM] | TGI (SK-OV-3 ovarian) [µM] | TGI (SNB-19 CNS) [µM] | TGI (TK-10 renal) [µM] | TGI (SF-268 CNS) [µM] |
| --- | --- | --- | --- | --- | --- | --- | --- | --- | --- | --- | --- | --- | --- | --- | --- | --- | --- | --- | --- |
| COCn1c(C)c(C)c2c(=O)oc(N(C)C)nc21 | > 100 | > 100 | > 100 | > 100 | > 100 | > 100 | > 100 | > 100 | > 100 | > 100 | > 100 | > 100 | > 100 | > 100 | > 100 | > 100 | > 100 | > 100 | – |
| C#CCCCOc1ncccn1 | > 100 | > 100 | > 100 | – | > 100 | > 100 | > 100 | > 100 | > 100 | > 100 | > 100 | – | > 100 | > 100 | > 100 | > 100 | > 100 | > 100 | > 100 |
| Cc1ccc2[nH]c3c(c2c1)C1CCC(C(C)(C)C)CC1C1C(=O)N(c2ccc4c(c2)OCO4)C(=O)C31 (stereo unspecified) | 3.48 | 5.54 | 10.1 | 16.5 | 4.24 | 6.22 | 3.53 | 6.14 | 12.4 | 17.6 | 18.3 | 3.27 | 7.18 | 3.62 | 2.74 | 6.86 | 7.97 | 4.32 | 5.04 |
| Cc1nc2c(o1)C(=O)c1ccccc1C2=Nc1ccc(N2CCOCC2)cc1 | 35.4 | 42.7 | 17.4 | 15.8 | 22.3 | > 100 | 12.5 | 3.25 | 7.9 | 3.5 | 7.62 | 26.8 | 7 | 12.4 | 6 | > 100 | 36.9 | 99.1 | 23.6 |
| COc1cccc(Cc2cc(=O)c3ccc(C)nc3[nH]2)c1 | > 100 | > 100 | > 100 | > 100 | > 100 | > 100 | > 100 | > 100 | > 100 | > 100 | > 100 | > 100 | 65 | – | – | > 100 | > 100 | > 100 | > 100 |
| COc1ccc(/C(CC2OC(=O)c3ccccc32)=N\NC(=O)C[N+](C)(C)C)cc1 (stereo unspecified) | 60.1 | > 100 | > 100 | 44.8 | > 100 | 67.8 | > 100 | > 100 | > 100 | > 100 | 47.7 | 66.7 | 64.1 | 78.5 | > 100 | > 100 | 96.5 | 87.8 | > 100 |
| c1ccc(C(=NNc2cnc3ccccc3n2)c2ccccn2)cc1 | > 100 | 12.2 | 13.4 | 14.5 | 20 | 28.3 | 37.9 | 23 | 12.2 | > 52.2 | 14.1 | 10.5 | 12.3 | 28 | 17.4 | > 44.6 | > 39.6 | – | 13.6 |
| COC(=O)/C=C\C(C#N)(C#N)N=Cc1ccc(Br)s1 | 31.5 | 5.94 | 26.4 | 6.63 | 31.8 | 4.67 | > 85.5 | 4.27 | 6.1 | 24.4 | 46.9 | 48 | 3.33 | 16.3 | – | 33.4 | 21.9 | 6.65 | 40.2 |
| CCCCCCCCCCCCCCCCOCC(CCl)OP(=O)(O)OP(=O)(O)OCC1OC(n2ccc(N)nc2=O)C(O)C1O (stereo unspecified) | > 100 | > 100 | > 100 | > 100 | > 100 | > 100 | > 100 | > 100 | > 100 | > 100 | > 100 | > 100 | > 100 | > 100 | > 100 | > 100 | > 100 | > 100 | > 100 |
| NS(=O)(=O)c1ccc(Nc2c3ccccc3nc3c(C(=O)NCCO)cccc23)cc1 | 0.229 | 0.546 | 0.772 | 0.333 | 0.443 | 0.618 | 0.79 | 0.268 | 0.176 | 0.412 | 0.293 | 0.186 | 0.272 | 0.454 | 0.27 | 0.649 | 0.355 | 0.726 | 0.303 |
| CNC(=O)CN(C)C(=O)CCC(=O)N(C)C | > 100 | > 100 | > 100 | > 100 | > 100 | > 100 | > 100 | > 100 | > 100 | > 100 | > 100 | > 100 | > 100 | – | > 100 | > 100 | > 100 | > 100 | > 100 |
| CN1CCN(CCCCN2c3ccccc3Sc3cc(N=[N+]=[N-])ccc32)CC1 | 22.8 | 5.32 | 15.1 | 5.68 | 6.63 | 6.43 | 5.02 | 3.28 | 3.63 | 11.2 | 18.7 | 3.8 | 3.31 | 7.5 | 8.31 | 22 | 10.8 | 3.43 | 22.4 |
| CCOP(=O)(OCC)[C@H]1OC(C)(C)O[C@@H]1CO | > 100 | > 100 | > 100 | > 100 | > 100 | > 100 | > 100 | > 100 | > 100 | > 100 | > 100 | > 100 | > 100 | > 100 | > 100 | > 100 | > 100 | > 100 | > 100 |
| CCOC(=O)C1=CC(C)(C(=O)OCC)Nc2c(nc(OC)[nH]c2=O)N1 (stereo unspecified) | > 10 | > 10 | > 10 | > 10 | > 10 | > 10 | > 10 | > 10 | > 10 | > 10 | > 10 | > 10 | > 10 | > 10 | > 10 | > 10 | > 10 | > 10 | > 10 |
| CN(C)Cc1cc(C=O)cc(CN(C)C)c1O | > 100 | – | > 100 | > 100 | > 100 | > 100 | > 100 | > 100 | > 100 | > 100 | 67.4 | > 100 | > 100 | > 100 | > 100 | – | > 100 | > 100 | > 100 |
| C/C(=N\NC(=S)N(C)CCN(C)C(=S)N/N=C(\C)c1ccccn1)c1ccccn1 | 3 | 11.8 | 10.4 | 18.5 | 19 | 16.4 | > 100 | 11.1 | 18.3 | 19.3 | 28.5 | – | 18.8 | 14.8 | 11.8 | 20.1 | 16.6 | 7.75 | 12 |
| COC(=O)C1C2CC3C1C3C2C(=O)OC (stereo unspecified) | > 100 | > 100 | > 100 | > 100 | > 100 | > 100 | > 100 | > 100 | > 100 | > 100 | > 100 | > 100 | > 100 | > 100 | > 100 | > 100 | > 100 | > 100 | > 100 |
| C1=NCCNCCNCCN=Cc2ccccc2OCc2cccc(n2)COc2ccccc21 | > 100 | > 100 | > 100 | > 100 | > 100 | > 100 | > 100 | > 100 | > 100 | 45.3 | > 100 | > 100 | > 100 | > 100 | 82.3 | > 100 | > 100 | – | > 100 |
| CC(C)SC(NC(=O)C1C(C)(C)CCC1(C)C)C(=O)O (stereo unspecified) | > 100 | – | > 100 | > 100 | > 100 | > 100 | > 100 | – | > 100 | > 100 | > 100 | > 100 | – | – | > 100 | > 100 | > 100 | > 100 | > 100 |
| CC(=N\N=C\c1ccccn1)/C(C)=N/N=C(C)/C(C)=N/N=C/c1ccccn1 | > 100 | > 100 | > 100 | > 100 | > 100 | > 100 | > 100 | > 100 | > 100 | > 100 | > 100 | > 100 | > 100 | > 100 | > 100 | > 100 | > 100 | > 100 | > 100 |
| COc1ccc2c(ccc3c(COC(=O)NC(C)C)c(COC(=O)NC(C)C)n(C)c32)c1 | 21 | 8.56 | 44.8 | 28.9 | 20.9 | 27.2 | 38.2 | 12.2 | 93.5 | 24.7 | 16 | 2.04 | 12.8 | 28 | 20.9 | 32.5 | > 100 | 47.8 | 29.7 |
| CCC1C(=O)C(O)[C@H]2[C@@H]3C(O)CC4=CC(=O)CC[C@]4(C)[C@H]3CC[C@]12C (stereo partly specified) | > 50 | > 50 | > 50 | > 50 | > 50 | > 50 | > 50 | > 50 | > 50 | > 50 | > 50 | > 50 | > 50 | – | > 50 | > 50 | > 50 | > 50 | > 50 |
| Cc1cc(-c2nc3ccc(F)cc3s2)ccc1N | > 100 | > 100 | > 100 | > 100 | > 100 | > 100 | > 100 | > 100 | > 100 | > 100 | > 100 | – | > 100 | – | > 100 | – | > 100 | > 100 | > 100 |
| O=c1[nH]cnc2c1ncn2[C@@H]1C[C@H]1CO | > 100 | > 100 | > 100 | > 100 | > 100 | > 100 | > 100 | > 100 | > 100 | > 100 | > 100 | > 100 | > 100 | > 100 | > 100 | – | > 100 | > 100 | > 100 |
| Cc1ccc(C)c2c1CC(Cc1ccccc1C(=O)O)C2=O (stereo unspecified) | – | > 100 | > 100 | > 100 | > 100 | > 100 | > 100 | > 100 | > 100 | > 100 | > 100 | > 100 | > 100 | > 100 | > 100 | > 100 | > 100 | > 100 | > 100 |
| O=C(O)[C@@H]1NC[C@H]2C(Br)=NO[C@H]21 | > 100 | > 100 | > 100 | > 100 | > 100 | > 100 | > 100 | > 100 | > 100 | > 100 | > 100 | > 100 | > 100 | > 100 | – | > 100 | > 100 | > 100 | > 100 |
